Results as given in patent US9694016B2 (Novartis AG, priority 2013, dated 2017).
Where two headings read alike, the source gives them in different places.

Biological target: b-Raf (V600E) (Homo sapiens (Human), UniProt P15056, V600E)
Conditions: read-out: b-Raf IC-50, AlphaScreen
[1] = 60 min pre-incubation, 3 hours reaction
[2] = 60 min pre-incubation, reaction 3 hours at room temperature

Sequence of b-Raf (V600E) (P15056 whole entry V600E): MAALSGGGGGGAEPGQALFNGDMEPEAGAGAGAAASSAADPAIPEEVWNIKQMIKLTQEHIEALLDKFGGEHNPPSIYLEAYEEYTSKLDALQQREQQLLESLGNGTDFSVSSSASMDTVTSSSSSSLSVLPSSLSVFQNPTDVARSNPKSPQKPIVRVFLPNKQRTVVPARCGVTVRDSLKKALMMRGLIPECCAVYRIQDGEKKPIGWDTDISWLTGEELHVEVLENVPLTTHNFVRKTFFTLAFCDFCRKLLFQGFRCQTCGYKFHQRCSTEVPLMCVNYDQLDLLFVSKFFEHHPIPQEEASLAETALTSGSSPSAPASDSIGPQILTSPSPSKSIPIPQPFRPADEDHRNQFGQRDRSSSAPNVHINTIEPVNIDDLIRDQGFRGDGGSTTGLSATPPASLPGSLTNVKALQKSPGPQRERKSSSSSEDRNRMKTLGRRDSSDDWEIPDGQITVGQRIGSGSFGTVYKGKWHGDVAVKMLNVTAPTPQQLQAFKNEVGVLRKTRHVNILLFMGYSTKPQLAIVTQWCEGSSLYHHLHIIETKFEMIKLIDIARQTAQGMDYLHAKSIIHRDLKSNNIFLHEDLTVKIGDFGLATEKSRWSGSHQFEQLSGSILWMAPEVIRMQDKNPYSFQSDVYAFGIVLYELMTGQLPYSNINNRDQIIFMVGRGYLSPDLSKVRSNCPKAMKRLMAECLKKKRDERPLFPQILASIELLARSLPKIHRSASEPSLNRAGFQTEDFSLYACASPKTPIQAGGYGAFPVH

Compound	IC50 [1]	IC50 [2]	further results
COc1nnc(-c2cc(NC(=O)c3ccnc(C(C)(C)F)c3)ccc2C)cc1N1CCOCC1 [Example 552, 2-(2-fluoropropan-2-yl)-N-(3-(6-methoxy-5-morpholinopyridazin-3-yl)-4-methylphenyl)isonicotinamide]	3 nM	–	–
Cc1ncc(NC(=O)c2cccc(C(F)(F)F)c2)cc1-c1cc(N2CCOCC2)c2nccn2c1 [Example 883, N-(6-methyl-5-(8-morpholinoimidazo[1,2-a]pyridin-6-yl)pyridin-3-yl)-3-(trifluoromethyl)benzamide]	–	1.7 nM	–
Cc1ccc(NC(=O)c2cccc(S(C)(=O)=O)c2)cc1-c1cc(N2CCOCC2)n(C)c(=O)c1 [Example 488, N-(4-methyl-3-(1-methyl-6-morpholino-2-oxo-1,2-dihydropyridin-4-yl)phenyl)-3-(methylsulfonyl)benzamide]	1.9 nM	–	–
Cc1ccc(NC(=O)c2ccnc(C(C)(C)C#N)c2)cc1-c1cc(N2CCOC[C@@H]2C)c(=O)n(C)n1 [Example 663, (S)-2-(2-cyanopropan-2-yl)-N-(4-methyl-3-(1-methyl-5-(3-methylmorpholino)-6-oxo-1,6-dihydropyridazin-3-yl)phenyl)isonicotinamide]	9.2 nM	–	–
Cc1ccc(NC(=O)c2ccnc(C(C)(C)C#N)c2)cc1-c1cc(N2CCOC(C)(C)C2)c(=O)n(C)n1 [Example 666, 2-(2-cyanopropan-2-yl)-N-(3-(5-(2,2-dimethylmorpholino)-1-methyl-6-oxo-1,6-dihydropyridazin-3-yl)-4-methylphenyl)isonicotinamide]	7.8 nM	–	–
Cc1ccc(NC(=O)c2ccnc(C(F)(F)F)c2)cc1-c1cc(N2CCOCC2)c(S(C)(=O)=O)nn1 [Example 930]	–	1.03 nM	–
Cc1ccc(C(=O)Nc2cccc(C(F)(F)F)c2)cc1-c1nc2c(c(N3CCOCC3)n1)CNC2 [Example 889, 4-methyl-3-(4-morpholino-6,7-dihydro-5H-pyrrolo[3,4-d]pyrimidin-2-yl)-N-(3-(trifluoromethyl)phenyl)benzamide]	–	3.3 nM	–
Cc1ccc(NC(=O)c2ccnc(C(C)(C)F)c2)cc1-c1cc(N2CCOC[C@H]2C)c(=O)n(C)n1 [Example 673, (R)-2-(2-fluoropropan-2-yl)-N-(4-methyl-3-(1-methyl-5-(3-methylmorpholino)-6-oxo-1,6-dihydropyridazin-3-yl)phenyl)isonicotinamide]	6.3 nM	–	–
Cc1ncc(NC(=O)c2cccc(C(F)(F)F)c2)cc1-c1nc2c(c(N3CCOCC3)n1)CS(=O)(=O)C2 [Example 886, N-(6-methyl-5-(4-morpholino-6,6-dioxido-5,7-dihydrothieno[3,4-d]pyrimidin-2-yl)pyridin-3-yl)-3-(trifluoromethyl)benzamide]	–	7.6 nM	–
COCCOc1nnc(-c2cc(NC(=O)c3ccnc(C(F)F)c3)ccc2C)cc1N1CCOCC1 [Example 598, 2-(difluoromethyl)-N-(3-(6-(2-methoxyethoxy)-5-morpholinopyridazin-3-yl)-4-methylphenyl)isonicotinamide]	1.1 nM	–	–
Cc1ccc(NC(=O)c2cnnc(C(F)(F)F)c2)cc1-c1cc(NCCO)nc(N2CCOCC2)c1 [Example 1047, N-(3-(2-((2-hydroxyethyl)amino)-6-morpholinopyridin-4-yl)-4-methylphenyl)-6-(trifluoromethyl)pyridazine-4-carboxamide]	–	3.95 nM	–
COc1ncc(-c2cc(NC(=O)c3ccnc(C(C)(F)F)c3)cnc2Cl)cc1N1CCOCC1 [Example 261, N-(2-chloro-6′-methoxy-5′-morpholino-[3,3′-bipyridin]-5-yl)-2-(1,1-difluoroethyl)isonicotinamide]	–	–	IC50 (Table 2, 3 hours reaction): 1.8 nM
Cc1ccc(NC(=O)c2cccc(C(F)F)c2)cc1-c1cc(N2CCOCC2)c(=O)n(C)n1 [Example 190, 3-(difluoromethyl)-N-(4-methyl-3-(1-methyl-5-morpholino-6-oxo-1,6-dihydropyridazin-3-yl)phenyl)benzamide]	–	–	IC50 (Table 2, 3 hours reaction): 2.2 nM
Cc1ncc(NC(=O)c2ccnc(C(F)(F)F)c2)cc1-c1cc(N2CCOCC2)n(C)c(=O)c1 [Example 500]	5.6 nM	–	–
